Assay results as given in US11753371B2 (BATTERJEE MEDICAL COLLEGE, priority 2021, dated 2023).

What was measured:
Format in all cases: biochemical
human FAAH (hFAAH) = human FAAH (hFAAH) (Homo sapiens (Human), UniProt O00519); experiment: FAAH enzyme inhibition assay (Cayman screening kit, AMC-arachidonoyl amide); design: key to IC50 (μM) ± SE (hFAAH): NI: no inhibition seen at the tested conditions
Procedure: FAAH inhibition assay was performed using Fatty Acid Amide Hydrolase Inhibitor Screening Assay Kit (Item #10005196), Cayman (1180 E Ellsworth Rd Ann Arbor, MI, USA). […] Manufacturer's protocol was followed to perform the assay. The assay buffer (125 mM Tri-HCl with 1 mM EDTA, pH 9.0) was used to dilute the FAAH human recombinant enzyme. AMC-Arachidonoyl amide, at a concentration of 400 μM was then used as the FAAH substrate. Samples were mixed for 30 s and incubated at 37° C. for 30 min. The fluorescent by-product AMC (7-amino-4-methylcoumarin) released by the FAAH enzyme was detected and quantified at an excitation wavelength of 355 nm and emission wavelength of 460 nm.

ALDH1a1 = ALDH1a1 (Homo sapiens (Human), UniProt P00352); experiment: ALDH assay (diaphorase/resazurin), ALDH1a1 inhibition
ALDH1a1, sequence (P00352 whole entry): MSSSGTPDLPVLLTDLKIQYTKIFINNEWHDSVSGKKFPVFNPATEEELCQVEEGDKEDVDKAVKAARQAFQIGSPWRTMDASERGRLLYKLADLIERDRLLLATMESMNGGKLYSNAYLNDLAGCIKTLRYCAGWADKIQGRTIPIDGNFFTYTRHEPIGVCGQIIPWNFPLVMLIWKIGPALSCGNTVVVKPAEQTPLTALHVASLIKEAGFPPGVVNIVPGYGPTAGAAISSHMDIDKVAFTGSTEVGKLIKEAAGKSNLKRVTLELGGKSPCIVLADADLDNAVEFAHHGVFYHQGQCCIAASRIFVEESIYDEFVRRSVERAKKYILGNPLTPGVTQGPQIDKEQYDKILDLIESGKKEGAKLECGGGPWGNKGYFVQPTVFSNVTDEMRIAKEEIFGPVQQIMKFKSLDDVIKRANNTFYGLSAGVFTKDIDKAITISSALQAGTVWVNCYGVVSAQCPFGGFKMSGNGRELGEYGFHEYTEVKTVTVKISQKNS
Description: (§1) ALDH catalyzes the oxidation of acetaldehyde to acetic acid while reducing NAD+ to NADH. The formation of NADH is fluorescently detected using diaphorase/resazurin system. Diaphorase utilizes NADH formed from ALDH reaction to produce the fluorescent molecule resorufin from resazurin. See Davis, M. I.; Shen, M.; Simeonov, A.; Hall, M. D., Diaphorase Coupling Protocols for Red-Shifting Dehydrogenase Assays.
(§2) The reagent ALDH1a1 is from R&D Systems (Minneapolis, MN). ALDH2 is from Prospect Bio (East Brunswick, NJ). Acetaldehyde is from Cayman Chemicals (Ann Arbor, MI). NAD^+, and Resazurin sodium salt are from Sigma (St. Louis, MO). Diaphorase is from Reaction Biology (Malvern PA). Zaba micro spin columns are from ThermoFisher scientific (Waltham, MA). […] Desalted samples from each enzyme were pooled together and placed in ice until use. Reaction buffer (50 mM sodium pyrophosphate buffer at pH 8.8, 0.01% Brij35) degassed using vacuum for 10 mins until no visible air bubbles were seen.
(§3) 5 μl of reaction buffer was delivered to ‘no enzyme’ background control wells. Test compounds were prepared in 100% DMSO by serial dilution in 100× of assay concentration. After adding the test compounds, reaction plate was centrifuged briefly in 1200 rpm, then incubated for 20 min at room temperature, to pre-incubate enzyme and compounds. […] Reaction plate was briefly centrifuged and sealed with a plastic film to limit evaporation. After incubation at room temperature for 60 min, 10 μl of detection reagent (15 μg/ml diaphorase, 30 μM resazurin prepared in the degassed reaction buffer) was added. Reaction plate was briefly centrifuged and incubated for 10 minutes at room temperature in the dark.

human MAGL (hMAGL) = human MAGL (hMAGL) (Homo sapiens (Human), UniProt Q99685); experiment: MAGL enzyme inhibition assay (4-nitrophenylacetate); conditions: relative to disulfiram / unsubstituted analogue
human MAGL (hMAGL), sequence (Q99685 whole entry): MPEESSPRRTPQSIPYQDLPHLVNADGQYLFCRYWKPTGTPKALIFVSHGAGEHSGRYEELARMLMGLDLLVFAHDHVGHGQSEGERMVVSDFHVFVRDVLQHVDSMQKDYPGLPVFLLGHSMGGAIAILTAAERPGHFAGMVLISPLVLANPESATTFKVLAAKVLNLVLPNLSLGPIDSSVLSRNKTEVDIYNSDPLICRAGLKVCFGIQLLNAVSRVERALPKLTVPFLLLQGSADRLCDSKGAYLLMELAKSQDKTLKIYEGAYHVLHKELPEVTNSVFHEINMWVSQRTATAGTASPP
Procedure: The plate was mixed for 30 s and incubated at room temperature for 30 min.

ALDH2 = ALDH2 (Homo sapiens (Human), UniProt P05091); experiment: ALDH assay (diaphorase/resazurin), ALDH2 inhibition
ALDH2, sequence (P05091 18-517): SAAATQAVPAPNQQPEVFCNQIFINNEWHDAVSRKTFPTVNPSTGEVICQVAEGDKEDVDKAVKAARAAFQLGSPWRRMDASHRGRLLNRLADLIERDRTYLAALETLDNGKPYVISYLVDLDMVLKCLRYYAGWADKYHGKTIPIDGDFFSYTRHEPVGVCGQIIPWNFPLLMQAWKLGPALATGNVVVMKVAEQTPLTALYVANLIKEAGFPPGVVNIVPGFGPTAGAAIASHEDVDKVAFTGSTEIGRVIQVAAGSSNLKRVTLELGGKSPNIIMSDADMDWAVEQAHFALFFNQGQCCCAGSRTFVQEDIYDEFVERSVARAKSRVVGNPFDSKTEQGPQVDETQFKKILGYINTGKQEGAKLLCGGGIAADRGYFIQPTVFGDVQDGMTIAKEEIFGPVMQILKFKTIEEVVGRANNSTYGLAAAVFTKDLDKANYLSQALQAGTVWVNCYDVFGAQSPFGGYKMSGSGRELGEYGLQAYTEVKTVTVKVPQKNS
Description: as §1, §2, §3

[1] = Table II, average of at least two different experiments

human FAAH (hFAAH), sequence (O00519 whole entry): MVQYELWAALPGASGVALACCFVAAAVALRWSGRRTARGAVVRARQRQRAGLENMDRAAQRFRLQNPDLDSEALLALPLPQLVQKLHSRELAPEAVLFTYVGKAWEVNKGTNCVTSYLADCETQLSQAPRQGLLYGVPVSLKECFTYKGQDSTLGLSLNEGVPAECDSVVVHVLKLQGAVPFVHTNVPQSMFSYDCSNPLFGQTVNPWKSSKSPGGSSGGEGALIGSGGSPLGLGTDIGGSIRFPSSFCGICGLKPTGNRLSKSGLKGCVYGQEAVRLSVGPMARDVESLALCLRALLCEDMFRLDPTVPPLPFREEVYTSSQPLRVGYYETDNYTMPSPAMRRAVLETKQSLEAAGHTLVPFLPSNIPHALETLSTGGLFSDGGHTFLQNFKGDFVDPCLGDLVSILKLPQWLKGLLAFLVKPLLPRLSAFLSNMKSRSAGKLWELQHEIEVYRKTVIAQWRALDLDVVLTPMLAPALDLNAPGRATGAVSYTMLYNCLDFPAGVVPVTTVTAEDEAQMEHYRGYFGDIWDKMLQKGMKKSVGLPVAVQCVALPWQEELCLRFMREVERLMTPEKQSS

Molecule | FAAH inhibitory activity (in words) (human FAAH (hFAAH)) | IC50 (μM) ± SE (hFAAH) (human FAAH (hFAAH); [1]) | ALDH1a1 inhibitory activity (in words) (ALDH1a1) | further results
bis(N-4-ethoxycarbonylbenzylethylthiocarbamoyl)disulphide [II-2l] | devoid of anti-FAAH activity | NI | – | –
CCN(CCC(=O)O)C(=S)SSC(=S)N(CC)CCC(=O)O [Compound I-2e, bis(N-carboxylethylethylthiocarbamoyl)disulfide] | – | – | – | IC50 (human FAAH (hFAAH); Table II, average of at least two different experiments, read-out: IC50 (μM) ± SE (hFAAH)): 122 ± 1.57 µM
CC(C)CN(CC(C)C)C(=S)SSC(=S)N(CC(C)C)CC(C)C [Compound I-2j] | no inhibition of FAAH | NI | complete loss of activity | fold decrease in MAGL inhibitory activity (human MAGL (hMAGL)): up to 15 fold
CCN(Cc1ccc(C)cc1)C(=S)SSC(=S)N(CC)Cc1ccc(C)cc1 [III-2i, bis (N-4-Methylbenzyethylthiocarbamoyl) disulphide] | – | – | – | Aldh1a1 (IC50, μM) ± SE (ALDH1a1; Table III): No inhibition; Aldh2 (IC50, μM) ± SE (ALDH2; Table III): No inhibition
CCN(C)C(=S)SSC(=S)N(C)CC [Compound I-2g] | – | – | – | IC50 (ALDH1a1; Table I, mean of at least two independent experiments, read-out: IC50 (μM) ± SE (ALDH1a1)): 0.02 ± 0.01 µM; IC50 (ALDH2; Table I, mean of at least two independent experiments, read-out: IC50 (μM) ± SE (ALDH2)): 0.32 ± 0.04 µM
CC(=O)N[C@@H](CS)C(=O)O [5 N•Acetyl-i-Cysteine, N•Acetyl-i-Cysteine] | – | – | none of them showed any activity | ALDH2 inhibitory activity (in words) (ALDH2): none of them showed any activity
CCN(Cc1ccc(C(=O)O)cc1)C(=S)SSC(=S)N(CC)Cc1ccc(C(=O)O)cc1 [Compound I-2d] | devoid of anti-FAAH activity | NI | – | change in ALDH1a1 inhibitory activity relative to I-2a (ALDH1a1; para carboxylic acid versus I-2a): tenfold decrease; fold decrease in MAGL inhibitory activity (human MAGL (hMAGL)): 20 fold
CC(C)N(C(=S)SSC(=S)N(C(C)C)C(C)C)C(C)C [Compound I-2h] | – | NI | – | –
Cl.NCCS [3 Cysteamine•HCl, Cysteamine•HCl] | – | – | none of them showed any activity | ALDH2 inhibitory activity (in words) (ALDH2): none of them showed any activity
